# Patent US20170334899A1, “AMINO-SUBSTITUTED ISOTHIAZOLES” (Bayer Pharma Aktiengesellschaft, priority 2014, published 2017)
# Tests used:
# Format in all cases: cell-based
# [1] = system: human cervical tumor cell line HeLa (ATCC CCL-2); experiment: SAC-Formation - Nocodazole-Induced Assay; settings: Homo sapiens, HeLa, 24 h, HeLa cells, nocodazole 0.1 μg/ml together with test compound, decrease of mitotic cells (phospho-histone H3 Ser10)
# Description: (§1) The spindle assembly checkpoint assures the proper segregation of chromosomes during mitosis. Upon entry into mitosis, chromosomes begin to condensate which is accompanied by the phosphorylation of histone H3 on serine 10. Dephosphorylation of histone H3 on serine 10 begins in anaphase and ends at early telophase. Accordingly, phosphorylation of histone H3 on serine 10 can be utilized as a marker of cells in mitosis. Nocodazole is a microtubule destabilizing substance. Paclitaxel is a microtubule stabilizing compound. Thus, nocodazole as well as paclitaxel interfere with microtubule dynamics and mobilize the spindle assembly checkpoint. […] The mitotic breakthrough can be detected by the decrease of cells with phosphorylation of histone H3 on serine 10. This decline is used as a marker to determine the capability of compounds of the present invention to induce a mitotic breakthrough. The typical morphological alteration of nuclei with a prematurely completed mitosis after SAC-inhibition can be monitored via image analysis routines supporting those findings.
# (§2) The nocodazole and paclitaxel variations were used to focus on compounds that are capable of inhibiting a SAC induced by both microtubule destabilization as well as microtubule stabilization. When SAC inducing agents and compounds are given simultaneously inhibitors that effectively block the SAC during formation or abrogation are identified. When cells are incubated with a SAC inducing agent and the SAC interfering compound is given after a defined time, inhibitors are identified that effectively block SAC abrogation.
# (§3) Cultivated cells of the human cervical tumor cell line HeLa (ATCC CCL-2) were plated at a density of 1000 cells/well in a 1536-well microtiter plate in 2 μl PAA Ham's F12 Medium supplemented with 1% (v/v) glutamine, 1% (v/v) penicillin, 1% (v/v) streptomycin and 10% (v/v) fetal calf serum. After incubation overnight at 37° C., 10 μl/well nocodazole at a final concentration of 0.1 μg/ml were added to cells. Test compounds solubilized in dimethyl sulfoxide (DMSO) were added at various concentrations (0 μM, as well as in the range of 0.005 μM-20 μM; the final concentration of the solvent DMSO was 0.5% (v/v)). Cells were incubated for 24 h at 37° C. in the presence of test compounds in combination with nocodazole. Thereafter, cells were fixed in 4% (v/v) paraformaldehyde in phosphate buffered saline (PBS) at 4° C. overnight then permeabilized in 0.1% (v/v) Triton X™ 100 in PBS at room temperature for 20 min and blocked in 0.5% (v/v) bovine serum albumin (BSA) in PBS at room temperature for 15 min. After washing with PBS, 5 μl/well antibody solution (anti-phospho-histone H3 clone 3H10, FITC; Millipore, Cat#16-222; 1:1000 dilution) was added to cells, which were incubated for 2 h at room temperature. Afterwards, cells were washed with PBS and 5 μl/well solution of HOECHST 33342 dye (5 μg/ml) was added to cells and cells were incubated 15 min at room temperature in the dark. Cells were washed twice with PBS then covered with PBS and stored at 4° C. until analysis. Images were acquired with a PERKIN ELMER OPERA™ High-Content Analysis reader. Images were analyzed with image analysis software MetaXpress™ from Molecular devices utilizing the Mitotic Index application module. In this assay both labels HOECHST 33342 and phosphorylated Histone H3 on serine 10 were measured. HOECHST 33342 labels the DNA and is used to count the cell number. The staining of phosphorylated Histone H3 on serine 10 determines the number of mitotic cells. […] Otherwise cells were arrested at G2/M phase of the cell cycle progression. The raw assay data were further analyzed by four-parametric hill equation using Genedata's Assay Analyzer and Condoseo software.
# HeLa = experiment: Proliferation assay (crystal violet), HeLa; settings: Homo sapiens, HeLa, 96 h, HeLa cells; 4 days incubation; crystal violet staining; read-out: IC50 inhibition of proliferation, HeLa
# Protocol: Cultivated tumor cells (cells were ordered from ATCC, except HeLa-MaTu and HeLa-MaTu-ADR, which were ordered from EPO-GmbH, Berlin) were plated at a density of 1000 to 5000 cells/well, depending on the growth rate of the respective cell line, in a 96-well multititer plate in 200 μL of their respective growth medium supplemented 10% fetal calf serum. After 24 hours, the cells of one plate (zero-point plate) were stained with crystal violet (see below), while the medium of the other plates was replaced by fresh culture medium (200 μl), to which the test substances were added in various concentrations (0 μM, as well as in the range of 0.001-10 μM; the final concentration of the solvent dimethyl sulfoxide was 0.5%). The cells were incubated for 4 days in the presence of test substances. Cell proliferation was determined by staining the cells with crystal violet: the cells were fixed by adding 20 μl/measuring point of an 11% glutaric aldehyde solution for 15 minutes at room temperature. After three washing cycles of the fixed cells with water, the plates were dried at room temperature. The cells were stained by adding 100 μl/measuring point of a 0.1% crystal violet solution (pH 3.0). After three washing cycles of the stained cells with water, the plates were dried at room temperature. The dye was dissolved by adding 100 μl/measuring point of a 10% acetic acid solution. Absorbtion was determined by photometry at a wavelength of 595 nm. The change of cell number, in percent, was calculated by normalization of the measured values to the aborbtion values of the zero-point plate (=0%) and the absorbtion of the untreated (0 μm) cells (=100%). The IC50 values were determined by means of a 4 parameter fit.
# [2] = system: human cervical tumor cell line HeLa (ATCC CCL-2); experiment: SAC-Formation - Paclitaxel-Induced Assay; settings: Homo sapiens, HeLa, 24 h, HeLa cells, paclitaxel 0.05 μM, test range 0.005 μM-20 μM, read-out: IC50 [mol/l] SAC-Formation - Paclitaxel-Induced Assay
# Description: as §1, §2
# Cultivated cells of the human cervical tumor cell line HeLa (ATCC CCL-2) were plated at a density of 1000 cells/well in a 1536-well microtiter plate in 2 μl PAA
# as §3, with “Ham's” for “Cultivated cells of the human cervical tumor cell line HeLa (ATCC CCL-2) were plated at a density of 1000 cells/well in a 1536-well microtiter plate in 2 μl PAA Ham's”, “paclitaxel” for “nocodazole”, “0.05 μM” for “0.1 μg/ml”, “μM -20” for “μM-20”, “paclitaxel.” for “nocodazole.”
Compound,IC50 [1],IC50 (HeLa),IC50 [2]
"Cc1nsc(Nc2cnc3ccccc3n2)c1C(=O)Nc1cccc(N)c1 [Example 450, N-(3-Aminophenyl)-3-methyl-5-(quinoxalin-2-ylamino)-1,2-thiazole-4-carboxamide]",12 µM,> 10 µM,20 µM
"Cc1nsc(Nc2cnc3ccccc3n2)c1C(=O)Nc1cccc(C(=O)NCCCN2CCOCC2)c1 [Example 95, 3-Methyl-N-(3-{[3-(morpholin-4-yl)propyl]carbamoyl}-phenyl)-5-(quinoxalin-2-ylamino)-1,2-thiazole-4-carboxamide]",0.068 µM,10 µM,10 µM
"C#CCNC(=O)c1cccc(NC(=O)c2c(C)nsc2Nc2cnc3ccccc3n2)c1 [Example 73, 3-Methyl-N-[3-(prop-2-yn-1-ylcarbamoyl)phenyl]-5-(quinoxalin-2-ylamino)-1,2-thiazole-4-carboxamide]",0.25 µM,9.4 µM,5.3 µM
"Cc1nsc(Nc2cnc3ccccc3n2)c1C(=O)Nc1cccc(C(=O)N2CCCN(C)CC2)c1 [Example 83, 3-Methyl-N-{3-[(4-methyl-1,4-diazepan-1-yl)carbonyl]-phenyl}-5-(quinoxalin-2-ylamino)-1,2-thiazole-4-carboxamide]",0.05 µM,10 µM,0.94 µM
"COc1cc(NC(=O)c2cccc(NC(=O)c3c(C)nsc3Nc3cnc4ccccc4n3)c2)cc(OC)c1OC [Example 77, 3-Methyl-5-(quinoxalin-2-ylamino)-N-{3-[(3,4,5-trimethoxy-phenyl)carbamoyl]phenyl}-1,2-thiazole-4-carboxamide]",2.2 µM,10 µM,10 µM
"Cc1nsc(Nc2cnc3ccccc3n2)c1C(=O)Nc1cccc(C(=O)N2CCN(Cc3ccc(F)cc3)CC2)c1 [Example 93, N-(3-{[4-(4-Fluorobenzyl)piperazin-1-yl]carbonyl}phenyl)-3-methyl-5-(quinoxalin-2-ylamino)-1,2-thiazole-4-carboxamide]",0.71 µM,9.9 µM,2.7 µM
"Cc1nsc(Nc2cnc3ccccc3n2)c1C(=O)Nc1cccc(C(=O)NCCN2CCOCC2)c1 [Example 71, 3-Methyl-N-(3-{[2-(morpholin-4-yl)ethyl]carbamoyl}-phenyl)-5-(quinoxalin-2-ylamino)-1,2-thiazole-4-carboxamide]",1.4 µM,10 µM,20 µM
"Cc1nsc(Nc2cnc3ccccc3n2)c1C(=O)Nc1cccc(C(=O)N(C)CCN(C)C)c1 [Example 58, N-(3-{[2-(Dimethylamino)ethyl](methyl)carbamoyl}phenyl)-3-methyl-5-(quinoxalin-2-ylamino)-1,2-thiazole-4-carboxamide]",3 µM,10 µM,7.3 µM
"Cc1nsc(Nc2cnc3ccccc3n2)c1C(=O)Nc1cccc(C(=O)N2CCN(CCN(C)C)CC2)c1 [Example 90, N-[3-({4-[2-(Dimethylamino)ethyl]piperazin-1-yl}carbonyl)-phenyl]-3-methyl-5-(quinoxalin-2-ylamino)-1,2-thiazole-4-carboxamide]",0.79 µM,10 µM,17 µM
"CC(=O)N[C@H]1CCN(C(=O)c2cccc(NC(=O)c3c(C)nsc3Nc3cnc4ccccc4n3)c2)C1 [Example 86, N-(3-{[(3S)-3-(acetylamino)pyrrolidin-1-yl]carbonyl}-phenyl)-3-methyl-5-(quinoxalin-2-ylamino)-1,2-thiazole-4-carboxamide]",3.2 µM,10 µM,13 µM
"C#CCN(C)C(=O)c1cccc(NC(=O)c2c(C)nsc2Nc2cnc3ccccc3n2)c1 [Example 62, 3-Methyl-N-{3-[methyl(prop-2-yn-1-yl)carbamoyl]phenyl}-5-(quinoxalin-2-ylamino)-1,2-thiazole-4-carboxamide]",0.44 µM,10 µM,1.5 µM
"Cc1nsc(Nc2cnc3ccccc3n2)c1C(=O)Nc1cccc(C(=O)N(C)CCO)c1 [Example 59, N-{3-[(2-hydroxyethyl)(methyl)carbamoyl]phenyl}-3-methyl-5-(quinoxalin-2-ylamino)-1,2-thiazole-4-carboxamide]",3.4 µM,10 µM,20 µM
"Cc1nsc(Nc2cnc3ccccc3n2)c1C(=O)Nc1cccc(C(=O)NCCCN2CCCC2=O)c1 [Example 60, 3-Methyl-N-(3-{[3-(2-oxopyrrolidin-1-yl)propyl]carbamoyl}phenyl)-5-(quinoxalin-2-ylamino)-1,2-thiazole-4-carboxamide]",0.31 µM,10 µM,0.24 µM
